We go through four compounds from article PMC10724190, “Phytochemical screening and biological evaluation of Greek sage (Salvia fruticosa Mill.) extracts” (Scientific Reports, 2023).

For experiment [1], the target named is microbial XO (xanthine oxidase). Nature of the experiment: Xanthine oxidase inhibitory activity, HPLC-PAD monitoring of uric acid formation. It is filed as biochemical. The following applies: for IC50, mass of standard or dry weight of sample capable of reducing XO activity to 50%: 15 min preincubation, 60 min at 25 °C, xanthine substrate; for IC50: read-out: IC50 of XO inhibition as concentration. The method, then: The transformation of xanthine (substrate) to uric acid (product) by XO with or without the presence of tested samples was monitored with the use of HPLC-PAD at 285 nm (Fig. 3a). The enzyme activity was calculated as the percentage of the uric acid peak area formed in the presence of the tested sample compared to the control without the addition of the sample (Fig. 3b). The inhibition of the XO enzyme was expressed as an IC50 value, meaning the mass of standard or dry weight of sample (μg) capable of reducing enzyme activity to 50% (Fig. 3b,c).
The ability of – caffeic acid, carnosic acid, carnosol, rosmarinic acid, salvianolic acid B and scutellarin, as well as S. fruticosa extracts – to inhibit XO was determined. The stock solutions of xanthine (substrate) and uric acid (product) (1.5 mM) were prepared in an NaOH aqueous solution (1 M). The working solutions of these compounds (150 μM) were prepared by dilution of stock solutions with a phosphate buffer (10 mM, pH 7.7). An enzyme solution with an activity of approximately 0.5 U/mL was prepared in the same phosphate buffer. The same buffer was also used to dilute stock solutions of phytochemical standards and S. fruticosa extracts. The diluted samples with different concentrations of standard or plant extract (85 µL) were mixed with an XO solution (30 µL) and preincubated for 15 min at 25 °C, followed by the addition of 60 µL of a 150 µM xanthine solution (substrate). The mixtures were incubated for 60 min at 25 °C, then 25 µL of HCl solution (1 M) was added to stop the enzymatic reaction.
The samples were analyzed using an HPLC-PAD system (1200 series, Agilent Technologies, Wilmington, DE, USA) equipped with a Kinetex® column (150 × 4.6 mm, 5 µm, Phenomenex). A two-component mobile phase was used, in which component A was water acidified with formic acid (1%) and component B was methanol. The mobile phase was pumped at flow rate of 1 mL/min according to the gradient elution program: 0 min – 100% A, 8 min – 18% B, 12 min – 80% B, 18 min – 100% B and finally, the initial conditions were held for 5 min as a re-equilibration step. The injection volume was 30 μL. The inhibition of the XO enzyme was expressed as an IC50 value, meaning the mass of standard or dry weight of the sample (μg) that could reduce enzyme activity to 50%. Enzyme activity was calculated as the percentage of the uric acid peak area (RT 3.1 min) that was formed in the presence of extracts compared to the control sample without the addition of extracts.

Experiment [2] is described as follows: Total antioxidant activity, ABTS, DPPH and F–C tests taken together. The following applies: reference antioxidant trolox. The method, then: The presented study compared the results of the three most popular spectrophotometric tests using ABTS, DPPH and Folin–Ciocalteu (F–C) reagents. ABTS and DPPH assays are used widely to determine free radical scavenging activity of extracts, as are pure compounds. For S. fruticosa extracts, the calculated antioxidant activity describes the number of ABTS or DPPH molecules reduced by antioxidants derived from 1 g of dried material after 10 min of reaction. These values were calculated in the linear range of the method and expressed as the slope of the line describing the relationship between the number of reduced millimoles of oxidants and various amounts of tested samples – as grams of dry matter in reaction mixtures (Fig. 2b).
The study also includes the method with the Folin–Ciocalteu reagent. It consists in the transfer of electrons in an alkaline environment from compounds with active hydroxyl groups to phosphomolybdic phosphotungstic acid complexes. The reducing capacity in this case was expressed as the number of millimoles of gallic acid equivalents, that formed blue complex and were derived from 1 g of dry matter of the plant. […]
The antioxidant activity of – caffeic acid, carnosic acid, carnosol, rosmarinic acid, salvianolic acid B, scutellarin and S. fruticosa extracts – was determined by spectrophotometric tests using ABTS, DPPH and Folin–Ciocalteu (F–C) reagents. […] For tests with radicals, the data were used to generate a plot of linear dependence between the different content of tested standards or S. fruticosa samples calculated as gram of dry weight present in the reaction mixtures and the number of scavenged millimoles of ABTS or DPPH radical. […] For the F–C test the results were calculated using the calibration curve of gallic acid. The antioxidant activity of the tested samples was expressed as a slope of the line that represents the relationship between the mass of standards or plant material [g] and amount of gallic acid equivalents [mmol] present in reaction mixtures after 60 min.

For the compound `Oc1ncnc2[nH]ncc12` [allopurinol], in experiment [1], the “IC50, mass of standard or dry weight of sample capable of reducing XO activity to 50%” value stood at 0.15 µg and the IC50 came to 5.5 µM.
As to `O=C(/C=C/c1ccc(O)c(O)c1)O[C@H](Cc1ccc(O)c(O)c1)C(=O)O` [rosmarinic acid, Rosmarinic acid], the IC50 in experiment [1] is 43.8 µM. Also, the “Antioxidant activity compared with trolox” value in experiment [2] is given as “more efficient than trolox”.
On to Salvianolic acid B, for which, in experiment [2], the “Antioxidant activity compared with trolox” value is “more efficient than trolox”.
Regarding `O=C(O)/C=C/c1ccc(O)c(O)c1` [Caffeic acid], in experiment [1], the “IC50, mass of standard or dry weight of sample capable of reducing XO activity to 50%” value came out at 0.1 µg and the IC50 stood at 2.8 µM. In experiment [2], the “Antioxidant activity compared with trolox” value is on record as “more efficient than trolox”.
